The target of the assay is T1, human HPK1 (MAP4K1) (Homo sapiens, UniProt Q92918).
T1 construct: Recombinant human HPK1 kinase domain was obtained from ThermoFisher (Cat. #PV6357) and SignalChem (Cat. #M23-11G); purchased ThermoFisher; SignalChem PV6357; M23-11G
T1 sequence (Q92918 17-274 limits assumed): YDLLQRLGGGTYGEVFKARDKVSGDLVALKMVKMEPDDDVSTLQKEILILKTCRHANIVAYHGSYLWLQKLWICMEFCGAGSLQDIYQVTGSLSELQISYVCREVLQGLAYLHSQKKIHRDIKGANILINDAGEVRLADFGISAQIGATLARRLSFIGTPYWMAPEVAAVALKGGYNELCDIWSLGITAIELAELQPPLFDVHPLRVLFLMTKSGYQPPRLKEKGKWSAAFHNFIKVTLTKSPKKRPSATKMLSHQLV
Briefly: Biochemical assay for activity against HPK1 (ADP-Glo, MBP substrate). The note with it: recombinant human HPK1 kinase domain, 1 nM enzyme, ADP-Glo luminescence. A digest of the protocol:
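IC50s come from ADP-Glo luminescence after a 2 h room-temperature reaction phosphorylating MBP in the presence of ATP. Compound was first preincubated 15 min with 1 nM HPK1 kinase domain, human recombinant. Buffer: 50 mM HEPES pH 7.5, 150 mM NaCl, 3 mM TCEP, 10 mM MgCl2, 0.005% Tween-20, 0.01% BSA.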
(In general: In ADP-Glo the light output rises with the ADP produced.)

Where a name gives a salt, the structure may show the parent alone. Bounds are passed on as bounds.

In general, IC50 refers to the midpoint of a concentration-inhibition curve.

Turning to `COc1cc2c(cc1Nc1ncc3cnn(C4C=CCCC4)c3n1)CN(C)CC2` (stereo not drawn) [Example 34, N-(1-(cyclohex-2-en-1-yl)-1H-pyrazolo[3,4-d]pyrimidin-6-yl)-6-methoxy-2-methyl-1,2,3,4-tetrahydroisoquinolin-7-amine], the IC50 was less than 100 nM.

Take `COc1cc2c(cc1Nc1ncc3cnn([C@H]4CC[C@H](C(=O)O)C4)c3n1)CN(C)CC2` (racemic) [Example 41, rac-(1S,3S)-3-(6-((6-methoxy-2-methyl-1,2,3,4-tetrahydroisoquinolin-7-yl)amino)-1H-pyrazolo[3,4-d]pyrimidin-1-yl)cyclopentane-1-carboxylic acid]: the IC50 was 100 to 250 nM.

For the compound `COCCS(=O)(=O)NC[C@H]1C[C@H](n2ncc3cnc(Nc4cc5c(cc4OC)CCN(C)C5)nc32)C1` [Example 124, 2-methoxy-N-(((1r,3r)-3-(6-((6-methoxy-2-methyl-1,2,3,4-tetrahydroisoquinolin-7-yl)amino)-1H-pyrazolo[3,4-d]pyrimidin-1-yl)cyclobutyl)methyl)ethane-1-sulfonamide], the IC50 was less than 100 nM.

With `CN1CCc2ccc(Nc3ncc4cnn(C56CC7CC(CC(C7)C5)C6)c4n3)cc2C1` [Example 103, N-(1-((3s,5s,7s)-adamantan-1-yl)-1H-pyrazolo[3,4-d]pyrimidin-6-yl)-2-methyl-1,2,3,4-tetrahydroisoquinolin-7-amine], the 50% inhibitory concentration (IC50) was less than 100 nM.

On to `COc1cc2c(cc1Nc1ncc3cnn([C@H]4C[C@@H](CNS(C)(=O)=O)C4)c3n1)CN(C)CC2` [Example 125, N-((cis-3-(6-((6-methoxy-2-methyl-1,2,3,4-tetrahydroisoquinolin-7-yl)amino)-1H-pyrazolo[3,4-d]pyrimidin-1-yl)cyclobutyl)methyl)methanesulfonamide], for which the 50% inhibitory concentration (IC50) was in the range of 100 to 250 nM.

For `COc1cc2c(cc1Nc1ncc3c(C)nn([C@H]4CC[C@H](CO)CC4)c3n1)CN(C)CC2` [Example 68, trans-[4-[6-[(6-methoxy-2-methyl-3,4-dihydro-1H-isoquinolin-7-yl)amino]-3-methyl-pyrazolo[3,4-d]pyrimidin-1-yl]cyclohexyl]methanol], the IC50 is less than 100 nM.

Turning to `COc1cc2c(cc1Nc1ncc3cnn(C[C@@H]4CC[C@@H](C)N4C(C)=O)c3n1)CN(C)CC2` [Example 174], the half-maximal inhibitory concentration (IC50) was less than 100 nM.

In the case of `COc1cc2c(cc1Nc1ncc3cnn(C4CCCCC4)c3n1)CN(C)CC2` [Example 33, N-(1-cyclohexyl-1H-pyrazolo[3,4-d]pyrimidin-6-yl)-6-methoxy-2-methyl-1,2,3,4-tetrahydroisoquinolin-7-amine], the concentration for half-maximal inhibition (IC50) is less than 100 nM.

In the case of `CCC1CCCCC1n1ncc2cnc(Nc3cc4c(cc3OC)CCN(C)C4)nc21` (stereo not drawn) [Example 25, N-(1-(2-ethylcyclohexyl)-1H-pyrazolo[3,4-d]pyrimidin-6-yl)-6-methoxy-2-methyl-1,2,3,4-tetrahydroisoquinolin-7-amine], the IC50 was less than 100 nM.

On to `COc1cc2c(cc1Nc1ncc3cnn(C[C@@H]4[C@H]5C[C@H]5CN4C(C)=O)c3n1)CN(C)CC2` [Example 220, 1-[(1S,2S,5R)-2-[[6-[(6-methoxy-2-methyl-3,4-dihydro-1H-isoquinolin-7-yl)amino]pyrazolo[3,4-d]pyrimidin-1-yl]methyl]-3-azabicyclo[3.1.0]hexan-3-yl]ethanone], for which the IC50 is less than 100 nM.

In the case of `COC(=O)NCCn1ncc2cnc(Nc3cc4c(cc3OC)CCN(C)C4)nc21` [Example 89, methyl N-[2-[6-[(6-methoxy-2-methyl-3,4-dihydro-1H-isoquinolin-7-yl)amino]pyrazolo[3,4-d]pyrimidin-1-yl]ethyl]carbamate], the IC50 lay within 100 to 250 nM.

As to `COc1cc2c(cc1Nc1ncc3c(C)nn([C@H]4CC[C@@H](C(N)=O)CC4)c3n1)CN(C)CC2` [Example 51, (cis)-4-(6-((6-methoxy-2-methyl-1,2,3,4-tetrahydroisoquinolin-7-yl)amino)-3-methyl-1H-pyrazolo[3,4-d]pyrimidin-1-yl)cyclohexane-1-carboxamide], the IC50 is less than 100 nM.

Turning to `COc1cc2c(cc1Nc1ncc3cnn([C@H]4CC[C@H](O)CC4)c3n1)CN(CC(F)F)CC2` [Example 154, trans-4-(6-((2-(2,2-difluoroethyl)-6-methoxy-1,2,3,4-tetrahydroisoquinolin-7-yl)amino)-1H-pyrazolo[3,4-d]pyrimidin-1-yl)cyclohexan-1-ol], the IC50 is less than 100 nM.

For `COc1cc2c(cc1Nc1ncc3cnn(C[C@@H]4C[C@H](C(F)(F)F)CN4C(C)=O)c3n1)CN(C)CC2` [Example 144, 1-[(2S,4S)-2-[[6-[(6-methoxy-2-methyl-3,4-dihydro-1H-isoquinolin-7-yl)amino]pyrazolo[3,4-d]pyrimidin-1-yl]methyl]-4-(trifluoromethyl)pyrrolidin-1-yl]ethan-1-one], the half-inhibitory concentration (IC50) is 100 to 250 nM.

With `CNC(=O)[C@H]1CC[C@H](n2ncc3cnc(Nc4cc5c(cc4OC)CCN(C)C5)nc32)C1` (racemic) [Example 43, rac-(1S,3S)-3-(6-((6-methoxy-2-methyl-1,2,3,4-tetrahydroisoquinolin-7-yl)amino)-1H-pyrazolo[3,4-d]pyrimidin-1-yl)-N-methylcyclopentane-1-carboxamide], the IC50 is less than 100 nM.

Take `CN1CCc2c(cc(Nc3ncc4cnn([C@H]5CC[C@H](O)CC5)c4n3)cc2C(F)(F)F)C1` [Example 58, (1r,4r)-4-(6-((2-methyl-5-(trifluoromethyl)-1,2,3,4-tetrahydroisoquinolin-7-yl)amino)-1H-pyrazolo[3,4-d]pyrimidin-1-yl)cyclohexan-1-ol]: the IC50 is less than 100 nM.

As to `COc1cc2c(cc1Nc1ncc3cnn(C[C@@H]4CCC[C@H]4C(N)=O)c3n1)CN(C)CC2` (racemic) [Example 159, racemic trans-2-[[6-[(6-methoxy-2-methyl-3,4-dihydro-1H-isoquinolin-7-yl)amino]pyrazolo[3,4-d]pyrimidin-1-yl]methyl]cyclopentanecarboxamide], the IC50 is less than 100 nM.

For `COc1cc2c(cc1Nc1ncc3cnn([C@H]4CC[C@H](NS(C)(=O)=O)CC4)c3n1)CN(C)CC2` [Example 79, trans-N-[4-[6-[(6-methoxy-2-methyl-3,4-dihydro-1H-isoquinolin-7-yl)amino]pyrazolo[3,4-d]pyrimidin-1-yl]cyclohexyl]methanesulfonamide], the 50% inhibitory concentration (IC50) is less than 100 nM.

`COC(=O)N1CCC[C@H]1Cn1ncc2cnc(Nc3cc4c(cc3OC)CCN(C)C4)nc21` [Example 113, methyl (S)-2-((6-((6-methoxy-2-methyl-1,2,3,4-tetrahydroisoquinolin-7-yl)amino)-1H-pyrazolo[3,4-d]pyrimidin-1-yl)methyl)pyrrolidine-1-carboxylate trifluoroacetate]: the half-maximal inhibitory concentration (IC50) was less than 100 nM.

Take `COc1cc2c(cc1Nc1ncc3cnn(CC4CCCNC4=O)c3n1)CN(C)CC2` (stereo not drawn) [Example 218, 3-[[6-[(6-methoxy-2-methyl-3,4-dihydro-1H-isoquinolin-7-yl)amino]pyrazolo[3,4-d]pyrimidin-1-yl]methyl]piperidin-2-one]: the IC50 is less than 100 nM.

Turning to `COc1cc2c(cc1Nc1ncc3cnn(C[C@@H]4[C@H](C)CCN4C(C)=O)c3n1)CN(C)CC2` [Example 189, 1-((2S,3R)-2-((6-((6-methoxy-2-methyl-1,2,3,4-tetrahydroisoquinolin-7-yl)amino)-1H-pyrazolo[3,4-d]pyrimidin-1-yl)methyl)-3-methylpyrrolidin-1-yl)ethan-1-one], the IC50 was less than 100 nM.

Regarding `COc1cc2c(cc1Nc1ncc3cnn([C@H]4CC[C@H](C(N)=O)CC4)c3n1)CN(C)CC2` [Example 38, (1r,4r)-4-(6-((6-methoxy-2-methyl-1,2,3,4-tetrahydroisoquinolin-7-yl)amino)-1H-pyrazolo[3,4-d]pyrimidin-1-yl)cyclohexane-1-carboxamide], the half-maximal inhibitory concentration (IC50) is less than 100 nM.

Take `COC(C)(C)CCn1ncc2cnc(Nc3ccc4c(c3)CN(C)CC4)nc21` [Example 11, N-(1-(3-methoxy-3-methylbutyl)-1H-pyrazolo[3,4-d]pyrimidin-6-yl)-2-methyl-1,2,3,4-tetrahydroisoquinolin-7-amine]: the IC50 was less than 100 nM.

As for `COc1cc2c(cc1Nc1ncc3cnn(C[C@@H]4[C@@H](C)CCN4C(C)=O)c3n1)CN(CCO)CC2` [Example 223, 1-((2S,3S)-2-((6-((2-(2-hydroxyethyl)-6-methoxy-1,2,3,4-tetrahydroisoquinolin-7-yl)amino)-1H-pyrazolo[3,4-d]pyrimidin-1-yl)methyl)-3-methylpyrrolidin-1-yl)ethan-1-one], the half-maximal inhibitory concentration (IC50) was less than 100 nM.

On to `COC(=O)N[C@@H](C)Cn1ncc2cnc(Nc3cc4c(cc3OC)CCN(C)C4)nc21` [Example 95, methyl N-[(1S)-2-[6-[(6-methoxy-2-methyl-3,4-dihydro-1H-isoquinolin-7-yl)amino]pyrazolo[3,4-d]pyrimidin-1-yl]-1-methyl-ethyl]carbamate], for which the IC50 was less than 100 nM.

With `COc1cc2c(cc1Nc1ncc3cnn(CC[C@H](C)O)c3n1)CN(C)CC2` [Example 84, (S)-4-(6-((6-methoxy-2-methyl-1,2,3,4-tetrahydroisoquinolin-7-yl)amino)-1H-pyrazolo[3,4-d]pyrimidin-1-yl)butan-2-ol], the IC50 was less than 100 nM.

As for `C=CCCN1CCc2ccc(Nc3ncc4cnn(CCC=C)c4n3)cc2C1` [Example 18, 2-(but-3-en-1-yl)-N-(1-(but-3-en-1-yl)-1H-pyrazolo[3,4-d]pyrimidin-6-yl)-1,2,3,4-tetrahydroisoquinolin-7-amine], the IC50 was less than 100 nM.

The record behind these values is patent publication US11918582B2 (RAPT Therapeutics, Inc., priority 2021, dated 2024).
